One test has as its target T1, 5-HT2A receptor (Homo sapiens, UniProt P28223).
T1 construct: expressed in transfected cells; alternatively human cortex tissue
Description: radioligand binding assay for 5-HT2A receptor ([3H]-ketanserin). Conditions: human cortex or recombinant 5-HT2A receptor expressed in CHO-K1 cells; for IC50: read-out: binding affinity to 5-HT2A serotonin receptor expressed as IC50 value; for Ki: read-out: binding affinity to 5-HT2A serotonin receptor, Ki value. As for the experimental part: (§1) The effect of the compounds of the present invention on the neurochemical steady state was determined by in vitro investigations such as a radionuclide-marked radioligand binding assay for 5-HT2A (Bonhaus D. W. Br. J. Pharmacol. 1995, 115:622; Saucier C. J. Neurochem. 1997, 68:1998) and 5-HT2C receptors (Wolf W. A. J. Neurochem. 1997, 69:1449), in vitro binding assay for the σ1 receptor (Thomson W. and Donn R. Arthritis Res. 2002, 4: 302-306) and by in vivo investigations in a tail suspension test (Vogel H. G. and Vogel W. H. Drug Discovery and Evaluation Pharmacological Assays, Springer 1997, 304), in amphetamine-induced hyperlocomotion in mice (Millan M. J. et al, 1998 J. Pharmacol. Exp. Ther. 287: 167-186), in a forced swim test in mice (Porsolt R. D. et al. Arch. Int. Pharmacodyn. 1977, 229:327-336), in meta-chlorophenyl piperazine (m-CPP) test on rats (Drug Dev. Res. 1989, 18:119-144), and in apomorphine, tryptamine, norepinephrine (ATN) test in rats (Arch. Int. Pharmacodyn. 1977, 227:238-253).
(§2) A small concentration of a radioligand having a great affinity for binding to a receptor was incubated with a tissue sample enriched with a certain receptor (1-5 mg of tissue) in a buffered medium (0.2-5 mL). Recombinant human HT2A and HT2C receptors were expressed in CHO-K1 or COS-7 cells and were also used for competitive binding. During incubation the radioligand bound to the receptor. When a binding balance was achieved, the receptors to which the radioligand was bound were separated from those to which said ligand was not bound, and the radioactivity of the receptor/radioligand complex was measured. The interaction of the tested compounds with receptors was tested in competitive binding experiments. Various concentrations of tested compounds were added to the incubation mixture containing a prepared tissue enriched with corresponding receptors and the radioligand. The radioligand binding was inhibited by the test compounds proportionally to the affinity of a certain compound for the receptor and to the concentration of the compound.
The radioligand used for the determination of binding to 5-HT2A receptor was [^3H]-ketanserin and the tissue used was human cortex or recombinant 5-HT2A receptor expressed in CHO-K1 cells.

For the next test, the target named is T2, 5-HT2C receptor (Homo sapiens, UniProt P28335).
T2 construct: expressed in transfected cells; alternatively choroid plexus tissue
T2 sequence (P28335 33-458): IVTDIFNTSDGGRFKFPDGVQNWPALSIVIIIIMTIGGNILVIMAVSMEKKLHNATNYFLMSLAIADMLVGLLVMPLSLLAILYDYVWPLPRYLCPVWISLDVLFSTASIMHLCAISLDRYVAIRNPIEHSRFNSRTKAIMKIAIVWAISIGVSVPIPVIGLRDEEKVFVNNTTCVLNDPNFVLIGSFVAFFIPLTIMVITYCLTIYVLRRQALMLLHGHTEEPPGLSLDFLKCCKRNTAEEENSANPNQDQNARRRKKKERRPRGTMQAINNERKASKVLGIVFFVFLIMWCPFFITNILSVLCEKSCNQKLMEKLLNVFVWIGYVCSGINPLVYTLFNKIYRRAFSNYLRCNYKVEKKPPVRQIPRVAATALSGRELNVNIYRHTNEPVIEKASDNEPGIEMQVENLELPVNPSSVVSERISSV
Description: radioligand binding assay for 5-HT2C receptor ([3H]-mesulergine). The note with it: choroid plexus or recombinant 5-HT2C receptor expressed in CHO-K1 cells; for IC50: read-out: binding affinity to 5-HT2C serotonin receptor expressed as IC50 value; for Ki: read-out: binding affinity to 5-HT2C serotonin receptor, Ki value. Here is the method: as §1, §2
The radioligand used for the determination of binding to 5-HT2C receptor was [^3H]-mesulergine and the tissue used was choroid plexus or recombinant 5-HT2C receptor expressed in CHO-K1 cells.

T1 sequence (P28223 whole entry): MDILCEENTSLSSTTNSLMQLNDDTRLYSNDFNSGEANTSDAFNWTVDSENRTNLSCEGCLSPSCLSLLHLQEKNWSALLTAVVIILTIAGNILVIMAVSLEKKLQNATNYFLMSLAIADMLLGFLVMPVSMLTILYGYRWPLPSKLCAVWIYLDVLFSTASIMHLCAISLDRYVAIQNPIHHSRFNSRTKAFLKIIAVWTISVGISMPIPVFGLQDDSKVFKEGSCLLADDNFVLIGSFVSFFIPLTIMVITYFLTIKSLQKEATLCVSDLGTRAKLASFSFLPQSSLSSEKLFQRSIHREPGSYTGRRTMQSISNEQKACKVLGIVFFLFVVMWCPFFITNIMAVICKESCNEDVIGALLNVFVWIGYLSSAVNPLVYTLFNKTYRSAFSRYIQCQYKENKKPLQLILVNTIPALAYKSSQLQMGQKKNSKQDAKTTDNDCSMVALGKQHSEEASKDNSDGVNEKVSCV

With `CN(C)CCOCc1n[nH]c2c1-c1ccccc1Oc1ccc(Cl)cc1-2` [[2-(11-chloro-1H-8-oxa-1,2-diaza-dibenzo[e,h]azulen-3-ylmethoxy)-ethyl]-dimethyl-amine], the 50% inhibitory concentration (IC50) at 5-HT2A receptor and at 5-HT2C receptor was < 0.2 µM in each case. The inhibition constant (Ki) at 5-HT2A receptor and on 5-HT2C receptor was < 0.1 µM each time.

Regarding `CN(C)CCCOCc1c2c(nn1CCc1ccccc1)-c1ccccc1Sc1ccccc1-2` [dimethyl-[3-(2-phenethyl-2H-8-thia-1,2-diaza-dibenzo[e,h]azulen-3-ylmethoxy)-propyl]-amine], the IC50 on 5-HT2A receptor and at 5-HT2C receptor was < 0.2 µM in each case. Besides, the inhibitory constant (Ki) on 5-HT2A receptor and at 5-HT2C receptor was < 0.1 µM throughout.

As to `CN(C)CCCOCc1n[nH]c2c1-c1ccccc1Sc1ccccc1-2` [dimethyl-[3-(11H-8-thia-1,2-diaza-dibenzo[e,h]azulen-3-ylmethoxy)-propyl]-amine], on 5-HT2A receptor, the IC50 was < 0.2 µM and the Ki was < 0.1 µM. At 5-HT2C receptor, the IC50 was < 0.2 µM and the Ki is < 0.1 µM.

Source of the values: patent US20070173492A1, “1,2-Diaza-dibenzo[e,h]azulenes for the treatment of central nervous system diseases and disorders” (Pliva-Istrazivacki Institut d.o.o., priority 2003, published 2007).
